Measured values: patent US6197225A, “Chromene compound” (Tokuyama Corporation, priority 1997, dated 2001)

What was measured:
[1] = prior-art compound, placed in a dark place after color development; cited from earlier work
[2] = Aging promotion testing: sunlight 30 min / fading one hour cycles, 10 days (durability, coloring degree); type: physicochemical; conditions: single chromene compound in polymer, 10 days aging, Table 5; for Change in the coloring degree ΔYI: YI(10)-YI(0)
Procedure: In order to promote the aging, furthermore, the following testing was conducted. That is, the obtained photochromic polymer was irradiated with sunlight for 30 minutes to develop color, and its color was permitted to fade for one hour in the light of a fluorescent lamp. This cycle was repeated three times a day for a total of 10 days.
The photochromic properties before and after aged were evaluated by evaluating the color densities before and after aged. The initial color density (T0) and the color density (T30) ten days after the aging promotion testing were measured, and the durability was expressed as described below.
Furthermore, the coloring degrees of before developing color were measured before and after aged by using a color difference meter (SM-4) manufactured by Suga Shikenki Co.
7 Coloring degree before being aged=YI(0).
8 Change in the coloring degree (ΔYI)=YI(10)-YI(0)
YI(10): coloring degree after aged
(§1) Photochromic polymers were prepared in the same manner as in Example 42 but using the chromene compounds obtained in Examples 2 to 41, and their maximum absorption wavelengths, color densities, fading rates, changes in the coloring degrees and durabilitys were measured.
(§2) For the purpose of comparison, furthermore, the compounds represented by the following formulas (a), (b), (c), (d), (e) and (f) were measured for their maximum absorption wavelengths, color densities, fading rates, changes in the coloring degrees and durabilitys.
(§3) The procedure was carried out in the same manner as in Example 42 but using 100 parts of AC1 and 133 parts of BC1, the sum of the amounts of AC1 and BC1 being 0.04% by weight. The obtained photochromic polymer was measured for its maximum absorption wavelength, initial color, color density, color-developing sensitivity, fading rate, durability and change in the coloring degree.
(§4) The procedure was carried out in the same manner as in Example 83 but using the known chromene compounds shown in Table 6 instead of the chromene compound used in Example 83. […]
The obtained polymer (2 mm thick) was caused to develop color outdoors, and tones of the developed color were observed by eyes 30 seconds and 15 minutes after it was brought to the outdoors, and uniformity in the step of developing color was evaluated. […] Furthermore, the aging promoting testing was conducted in the same manner as in Example 42 to find a coloring degree (YI(0)) before aged and a change in the coloring degree (ΔY).

[3] = Photochromic properties of cast polymer (2 mm thick) under xenon lamp irradiation for 120 seconds; type: physicochemical; conditions: single chromene compound 0.04% by weight in polymer, 20° C., Table 5; for Color density ε(120)-ε(0): 120 seconds
Procedure: 0.04% by weight of the chromene compound obtained in Example 1 was added to 70 parts of 4G, 15 parts of 3G, 10 parts of GMA, 5 parts of HEMA and 1 part of perbutyl ND, and was mixed together to a sufficient degree. The mixture solution was poured into a mold constituted by a glass plate and a gasket of an ethylene/vinyl acetate copolymer, and was cast-polymerized. By using an air furnace, the polymerization was conducted in a manner that the temperature was gradually raised from 30° C. to 90° C. over a period of 18 hours, and was held at 90° C. for 2 hours. After the polymerization, the polymer was taken out from the glass mold.
By using a xenon lamp, L-2480 (300 W) SHL-100, manufactured by Hamamatsu Photonics Co., the obtained polymer (2 mm thick) was irradiated with a beam of an intensity of 365 nm=2.4 mW/cm^2 and 245 nm=24 μW/cm^2 on the surface of the polymer for 120 seconds through an aero-mass filter (manufactured by Corning Co.) at 20° C.±1° C. to develop color and to measure the photochromic properties which were expressed in the following manner.
1 Maximum absorption wavelength (λmax): λmax of the polymer after it has developed color was found by using a spectrophotometer (instantaneous multi-channel photo-detector, MCPD1000) manufactured by Otsuka Denshi Kogyo Co.
2 Initial color ( ε(0)): Absorbency of the polymer in a non-irradiated state at a wavelength same as the maximum absorption wavelength of when it is irradiated with light.
3 Color density (-)=ε(120)-ε(0). ε(120): Absorbency of the polymer at a maximum absorption wavelength after it was irradiated for 120 seconds under the above-mentioned conditions.
4 Color-developing sensitivity (-/min.)=Saturated color density/xenon irradiation time.
Rate of increase in the color density per a unit time until the color density is saturated.
5 Color fading rate [t1/2 (min.)]=time required until the absorbency of the polymer drops down to one-half of [ε(120)-ε(0)] after irradiated for 120 seconds.
as §1, §2, §3, §4

Row | Change in the coloring degree ΔYI [2] | Light resistance (durability) [2] | Maximum absorption wavelength λmax [3] | Color density ε(120)-ε(0) [3] | SMILES | fading rate (in words) [1] | Fading rate t1/2 [3]
1 | – | – | – | – | Cc1cc2ccccc2c2c1C=CC(c1ccccc1)(c1ccccc1)O2 [(C)] | a fading rate nearly the same as that of the above-mentioned compound (A) | –
2 | 2.5 | 96% | 524 nm | 1.0 | CCOc1ccc(C2(c3ccc(OC)cc3)C=Cc3c(CC)cc4c(Cc5ccccc5)cccc4c3O2)cc1 (stereo not drawn) [Compound 39] | – | 5.8 min
3 | 2.8 | 96% | 482 nm | 0.8 | CCCCc1cc2cccc(Br)c2c2c1C=CC(c1ccc(OC)c(F)c1)(c1ccc(OC)c(F)c1)O2 [Compound 38] | – | 4.8 min
4 | 2.5 | 96% | 502 nm | 1.0 | CCc1cc2ccccc2c2c1C=CC(c1ccc(OC)cc1)(c1ccc(OC)cc1)O2 [Compound 28] | – | 5.5 min
5 | 1.7 | 96% | 468 nm | 0.8 | CC(C)c1cc2ccccc2c2c1C=CC(c1ccccc1)(c1ccc3ccccc3c1)O2 (stereo not drawn) [Compound 7] | – | 3.5 min
6 | 1.9 | 97% | 485 nm | 1.0 | CC(C)(C)c1cc2ccccc2c2c1C=CC(c1ccccc1)(c1cc3ccccc3s1)O2 (stereo not drawn) [Compound 11] | – | 3.4 min
7 | – | – | – | – | C1=CC2(CC3CCC2C3)Oc2c1ccc1ccccc21 (stereo not drawn) [(A)] | slow fading rate | –
8 | 1.2 | 96% | 486 nm | 0.9 | COc1ccc(C2(c3ccc(OC(F)(F)F)cc3)C=Cc3c(C(C)C)cc4ccccc4c3O2)cc1 (stereo not drawn) [Compound 15] | – | 4.8 min
9 | 2.0 | 92% | 450 nm | 0.5 | CCC(C)c1cc2ccccc2c2c1C=CC1(O2)C2CCCC1CCC2 (stereo not drawn) [Compound 23] | – | 1.0 min
10 | 2.5 | 97% | 512 nm | 1.3 | COc1ccc(C2(c3ccc(OC)cc3)C=Cc3c(C)cc4cc(-c5ccccc5)ccc4c3O2)cc1 [Compound 37] | – | 7.2 min
11 | 2.4 | 97% | 502 nm | 1.1 | COc1ccc(C2(c3ccc(OC)c(F)c3)C=Cc3c(C)cc4ccccc4c3O2)cc1 (stereo not drawn) [Compound 34] | – | 6.5 min
12 | 1.5 | 93% | 465 nm | 0.6 | CC(=O)Oc1ccc2c3c(c(C(C)C)cc2c1)C=CC(c1ccc(C)cc1)(c1ccc(C)cc1)O3 [Compound 10] | – | 3.2 min
13 | 2.3 | 99% | 496 nm | 1.1 | COc1ccc(C2(c3ccc(OC)c(F)c3)C=Cc3c(C)cc4ccccc4c3O2)cc1F [Compound 27] | – | 7.3 min
14 | 4.0 | 80% | 440 nm | 0.4 | CC(C)(C)c1cc2ccccc2c2c1C=CC1(O2)C2(Cl)CCC1(Cl)CC2 (stereo not drawn) [Compound 20] | – | 1.3 min
15 | 0.2 | 99% | 462 nm | 0.7 | CC(C)(C)c1cc2ccccc2c2c1C=CC(c1ccccc1)(c1ccccc1)O2 [Compound 1] | – | 3.6 min
16 | 2.4 | 98% | 504 nm | 1.2 | CCOc1ccc(C2(c3ccc(OCC)cc3)C=Cc3c(C)cc4ccccc4c3O2)cc1 [Compound 29] | – | 5.8 min
